Data set [1] concerns RAW264.7. Put plainly: Antiinflammatory activity in LPS-induced mouse RAW264.7 cells assessed as decrease in IL-6 expression at 6 uM pretreated for 2 hrs followed by stimulation with LPS for 6 hrs by Western blot analysis. The note with it: time 8.0 hrs. It is filed as functional, cell-based.
Data set [2] deals with RAW264.7. Put plainly: Antiinflammatory activity in LPS-induced mouse RAW264.7 cells assessed as decrease in IL-6 expression at 6 uM pretreated for 2 hrs followed by stimulation with LPS for 6 hrs by RT-PCR analysis. It counts as functional, cell-based.
Data set [3] relates to RAW264.7. Put plainly: Antiinflammatory activity in LPS-induced mouse RAW264.7 cells assessed as decrease in IL-1beta expression at 6 uM pretreated for 2 hrs followed by stimulation with LPS for 6 hrs by Western blot analysis. It counts as functional, cell-based.
For data set [4], the system named is RAW264.7. The data set can be described thus: Antiinflammatory activity in LPS-induced mouse RAW264.7 cells assessed as decrease in COX-2 expression at 10 uM pretreated for 2 hrs followed by stimulation with LPS for 22 hrs by Western blot analysis. It is filed as functional, cell-based. Particulars: time 24.0 hrs.
For data set [5], the system named is RAW264.7. The data set can be described thus: Antiinflammatory activity in LPS-induced mouse RAW264.7 cells assessed as decrease in IL-1beta expression at 6 uM pretreated for 2 hrs followed by stimulation with LPS for 6 hrs by RT-PCR analysis. It is filed as functional, cell-based.
The nature of data set [6]: Cytotoxicity against mouse RAW264.7 cells assessed as cell viability after 24 hrs by MTT assay. It is filed as toxicity, cell-based.
Data set [7] concerns RAW264.7. Put plainly: Antiinflammatory activity in LPS-induced mouse RAW264.7 cells assessed as decrease in COX-2 expression pretreated for 2 hrs followed by stimulation with LPS for 22 hrs by Western blot analysis. It counts as functional, cell-based.

The values that follow come from ChEMBL document CHEMBL5113433, “Biological evaluation for anti-inflammatory effect of africane-type sesquiterpenoids” (Bioorg Med Chem, 2022).

Molecules are shown by their SMILES. Active and inactive are the calls of the source. The calls are words filed in the database; no cut-off is given here.

With `CC(=O)OCC1(O)CCC2C1CC(C)(C)CC1CC12C` (single isomer, unassigned; (+)) [listing 1 of 2 here], the result in data set [1], in data set [2], in data set [3], in data set [4] and in data set [5] was Active.

`CC(=O)OC[C@]1(O)CC[C@@H]2[C@@H]1CC(C)(C)C[C@H]1C[C@]12C`: the result in data set [4] was Active.

For `CC(=O)OC[C@@]1(O)CC[C@@H]2[C@@H]1CC(C)(C)C[C@H]1C[C@]12C`, the outcome in data set [1], in data set [2], in data set [3], in data set [4] and in data set [5] was Active. Besides, in data set [6], the IC50 at 24 h is over 10 µM. Besides, the IC50 in data set [7] (Mus musculus, RAW264.7) came to 4.61 µM.

For `CC(=O)OCC1(O)CCC2C1CC(C)(C)CC1CC12C` (single isomer, unassigned; (-)) [listing 1 of 2 here], the result in data set [1], in data set [2], in data set [3], in data set [4] and in data set [5] was Active.

Consider `C=CCC(C)(C)C[C@@H]1C(=O)CC[C@H]1C(=C)C`, for which the outcome in data set [1], in data set [2], in data set [3], in data set [4] and in data set [5] was Active. Moreover, the IC50 at 24 h in data set [6] is over 10 µM. For the same compound, the IC50 in data set [7] (Mus musculus, RAW264.7) amounted to 8.17 µM.

As to `CC(=O)OCC1(O)CCC2C1CC(C)(C)CC1CC12C` (single isomer, unassigned; (+)) [listing 2 of 2 here], in data set [6], the IC50 at 24 h was over 10 µM. Also, in data set [7] (Mus musculus, RAW264.7), the IC50 stood at 6.64 µM.

In the case of `CC(=O)OCC1(O)CCC2C1CC(C)(C)CC1CC12C` (single isomer, unassigned; (-)) [listing 2 of 2 here], the concentration for half-maximal inhibition (IC50) in data set [7] (raw264.7) turned out to be 8.18 µM.
